# Values of other authors, collected in patent US10617673B2, “Cannabinoid receptor antagonists/inverse agonists useful for treating metabolic disorders, including obesity and diabetes” (Jenrin Discovery, LLC, priority 2012, dated 2020).
# Details: type 2 diabetes patients not on other anti-diabetic medications, after six months, baseline value 7.9
structure (smiles),measurement,value
Cc1c(C(=O)NN2CCCCC2)nn(-c2ccc(Cl)cc2Cl)c1-c1ccc(Cl)cc1 [rimonabant],HbA1c levels lowered,0.8%
